pIC50: −log10 of the molar value. Like-named read-outs stand apart in the source and are kept apart here.
Tested on: HUV-EC-C cells (human umbilical vein endothelial cells)
Experiment: HUV-EC-C Flk-1 assay (3H-thymidine incorporation)
Type: cell-based
Conditions: Endothelial cell
Protocol: The HUV-EC-C Flk-1 assay can be performed as follows:
1. Wash and trypsinize HUV-EC-C cells (human umbilical vein endothelial cells, American Type Culture Collection; catalogue no. 1730-CRL). Wash with Dulbecco's phosphate-buffered saline (D-PBS; obtained from Gibco BRL; catalogue no. 14190-029) 2 times at about 1 ml/10 cm^2 of tissue culture flask. Trypsinize with 0.05% trypsin-EDTA in non-enzymatic cell dissociation solution (Sigma Chemical Company; catalogue no. C-1544). The 0.05% trypsin was made by diluting 0.25% trypsin/l mM EDTA (Gibco; catalogue no. 25200-049) in the cell dissociation solution. Trypsinize with about 1 ml/25-30 cm^2 of tissue culture flask for about 5 minutes at 37° C. After cells have detached from the flask, add an equal volume of D-PBS and transfer to a 50 ml sterile centrifuge tube (Fisher Scientific; catalogue no. 05-539-6).
2. Wash the cells with about 35 ml D-PBS in the 50 ml sterile centrifuge tube by adding the D-PBS, centrifuge for 10 minutes at approximately 200×g, aspirate the supernatant, and resuspend with 35 ml D-PBS. Repeat the wash two more times, resuspend the cells in about 1 ml assay medium/15 cm^2 of tissue culture flask. Assay medium consists of F12K medium (Gibco BRL; catalogue no. 21127-014)+0.5% heat-inactivated fetal bovine serum. […]

Compound CC(C)S(=O)(=O)c1csc(NC(=O)Nc2ccc(C(C)(C)C)cc2)c1Cl [Example Z1, N-[3-Chloro-4-(isopropylsulfonyl)thien-2-yl]-N'-(4-t-butylphenyl)urea] has a pIC50 (VEGF stimulated, read-out: GROWTH DATA: HUV-EC-C/VEGF) of 5.54 and a pIC50 (aFGF stimulated, read-out: GROWTH DATA: HUV-EC-C/aFGF) of 4.52.

Reference: patent US5773459A, “Urea- and thiourea-type compounds” (Sugen, Inc., priority 1995, dated 1998)
